Results on three compounds are retold here after ChEMBL document CHEMBL4619824, “Identification of Novel Rho-Kinase-II Inhibitors with Vasodilatory Activity” (ACS Med Chem Lett, 2020).

The structures appear in SMILES notation.

This test addresses Rho-associated protein kinase 2 (Homo sapiens, UniProt O75116). Put plainly: Inhibition of ROCK2 (unknown origin) assessed as phosphorylation of MYPT1 using Tetramethylbenzidine as substrate in presence of ATP.

Sequence of Rho-associated protein kinase 2 (O75116 whole entry): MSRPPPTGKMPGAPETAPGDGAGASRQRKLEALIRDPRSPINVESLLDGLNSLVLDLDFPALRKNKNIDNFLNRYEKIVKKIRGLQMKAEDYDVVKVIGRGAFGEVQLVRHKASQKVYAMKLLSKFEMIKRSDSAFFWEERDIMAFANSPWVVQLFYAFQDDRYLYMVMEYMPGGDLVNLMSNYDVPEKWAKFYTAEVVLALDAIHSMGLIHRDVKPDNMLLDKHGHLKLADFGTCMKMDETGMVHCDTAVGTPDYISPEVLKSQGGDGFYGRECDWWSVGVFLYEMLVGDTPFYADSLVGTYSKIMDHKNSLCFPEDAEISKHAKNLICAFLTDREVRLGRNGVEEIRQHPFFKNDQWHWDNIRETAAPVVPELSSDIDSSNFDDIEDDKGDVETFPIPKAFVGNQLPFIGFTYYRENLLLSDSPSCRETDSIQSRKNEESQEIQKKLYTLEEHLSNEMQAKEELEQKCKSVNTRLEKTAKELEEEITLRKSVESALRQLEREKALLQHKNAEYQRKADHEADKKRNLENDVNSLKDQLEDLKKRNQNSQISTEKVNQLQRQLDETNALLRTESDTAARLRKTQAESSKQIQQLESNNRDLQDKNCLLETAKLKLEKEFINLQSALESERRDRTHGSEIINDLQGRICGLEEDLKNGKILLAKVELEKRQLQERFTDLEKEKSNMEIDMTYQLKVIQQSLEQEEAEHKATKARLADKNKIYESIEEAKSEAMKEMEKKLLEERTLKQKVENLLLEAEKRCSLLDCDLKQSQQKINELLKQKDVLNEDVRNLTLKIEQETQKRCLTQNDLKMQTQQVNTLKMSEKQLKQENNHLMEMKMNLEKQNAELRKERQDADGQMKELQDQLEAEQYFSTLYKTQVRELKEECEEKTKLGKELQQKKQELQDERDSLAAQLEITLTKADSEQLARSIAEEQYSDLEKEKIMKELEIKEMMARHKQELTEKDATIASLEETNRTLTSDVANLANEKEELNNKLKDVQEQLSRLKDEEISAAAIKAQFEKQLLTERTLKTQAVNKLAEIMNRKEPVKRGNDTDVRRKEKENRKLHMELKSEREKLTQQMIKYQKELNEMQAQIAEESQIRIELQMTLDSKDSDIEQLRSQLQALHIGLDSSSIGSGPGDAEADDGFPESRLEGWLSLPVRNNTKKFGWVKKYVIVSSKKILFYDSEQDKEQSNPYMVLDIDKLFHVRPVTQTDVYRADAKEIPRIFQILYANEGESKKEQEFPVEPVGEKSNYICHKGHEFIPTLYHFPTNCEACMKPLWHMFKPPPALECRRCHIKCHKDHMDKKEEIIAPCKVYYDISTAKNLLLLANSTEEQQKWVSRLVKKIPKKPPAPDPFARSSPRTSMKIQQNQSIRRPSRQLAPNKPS

For the compound `COCSC(C)CCSCCO` (stereo not drawn), the IC50 is 8.4 nM.

Turning to `CCC(O)CNCc1ccnc2ccc(OC)cc12` (stereo not drawn), the IC50 was determined as 8.02 nM.

Consider `COC(=O)c1ccc(N(C)C(C(=O)c2ccccc2)c2ccccc2)cc1` (stereo not drawn), for which the IC50 is 9.01 nM.

For orientation: IC50 means the concentration that inhibits the measured activity by half.
